# Test system: gray mold fungus (Botrytis cinerea)
# Experiment: Cucumber leaf disk preventive test against gray mold fungus
# Format: in vivo
# Conditions: 15° C., six days
# Method: True leaf of cucumber was punched out with cork borer to 13 mm in diameter to prepare a leaf disk. In 24 well microwell plate that was dispensed with 1 ml 0.8% water agar, the leaf disk was placed such that the upper side of the leaf was in an upward direction. […] Control where 20 micro liter ion-exchange water was spread was prepared (for non-treated group). After confirming that the spray solution was dried, conidium of gray mold fungus (Botrytis cinerea) was suspended into potato dextrose broth (DIFCO) in a density of about 10^5 conidia/mL and was then subjected to a spray inoculation. After leaving to stand the leaf disk in a growth chamber set up at 15° C. for six days, an onset area on each leaf was measured and a preventive value was then calculated by the following equation 1.
# The same above operations were carried out using the present diamide compound (2c) or the present diamide compound (3) instead of the present diamide compound (2b), so as to obtain the respective preventive values. Preventive value(%)=100×(A−B)/A (Equation 1)
# A: an onset area rate of plant belonging to non-treated group
# B: an onset area rate of plant belonging to treated Group onset area rate=(onset area of the leaf disk)/(the total area of the leaf disk) […]
smiles,measurement,setting,value
CNC(=O)C(OC)c1ccccc1COc1cc(C)ccc1C (centres unmarked) [the present amide compound],preventive value (%),the present amide compound alone 1.0 ppm (dimethyl sulfoxide solution),46%
same,preventive value (%),the present amide compound alone 2.5 ppm (dimethyl sulfoxide solution),56%

# From patent US8846720B2, “Pest controlling composition and method for controlling pest” (Sumitomo Chemical Company, Limited, priority 2010, dated 2014)
